Assay: Inhibition of RIPK1 in human FADD-deficient Jurkat I 2.1 cells assessed as reduction in TNFalpha-induced necroptosis measured after 24 hrs by MTS assay

| SMILES | EC50 [µM] |
| --- | --- |
| CCCCNc1nc2ccc([N+](=O)[O-])cc2[nH]1 | 1.7 |

Assay: Inhibition of RIPK1 in human FADD-deficient Jurkat I 2.1 cells assessed as protection against TNFalpha-induced necroptosis measured after 24 hrs by MTS assay

| SMILES | EC50 [µM] |
| --- | --- |
| COC(=O)c1cccc2nc(NC3CCCCC3)[nH]c12 | 9 |
| CC(C)Nc1nc2ccc([N+](=O)[O-])cc2[nH]1 | > 25 |
| CCCCNc1nc2cc([N+](=O)[O-])ccc2s1 | 4.7 |
| CCCNc1nc2ccc([N+](=O)[O-])cc2[nH]1 | 14.4 |
| O=[N+]([O-])c1ccc2nc(NC3CCCCC3)[nH]c2c1 | 1.04 |
| Clc1ccc2nc(NC3CCCCC3)[nH]c2c1 | 4.4 |
| CCCCNc1nc2cccc(C(=O)OC)c2[nH]1 | 18.1 |
| O=[N+]([O-])c1ccc2nc(Nc3ccccc3)[nH]c2c1 | 2.5 |
| CCCCNc1nc2ccc([N+](=O)[O-])cc2s1 | 6.9 |
| CCCCNc1nc2ccc([N+](=O)[O-])cc2[nH]1 | 1.7 |
